molecular target: T1, catalytic domain of human Bub1 (amino acids 704-1085) (Homo sapiens, UniProt O43683); test: Bub1 kinase assay (TR-FRET); type: biochemical; settings: TR-FRET; ATP 10 μM, peptide substrate 1 μM; 60 min at 22° C.; average or median if tested more than once; read-out: Inhibition of Bub1 kinase IC50
T1 construct: catalytic domain of human Bub1 (amino acids 704-1085); His6 (N); made in house; host or cells: Hi5 insect cells
Method in brief: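 Eleven concentrations (0.1 nM–20 μM, duplicate) fitted by 4-parameter logistic for IC50. Read-out: EDTA-stopped TR-FRET (665/620 nm) detecting anti-phosphoserine binding to biotin-peptide (1 μM). Reaction used 10 μM ATP, 60 min at 22 °C, after 15 min compound preincubation with His-tagged human Bub1 704-1085.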

T1 sequence (O43683 704-1085): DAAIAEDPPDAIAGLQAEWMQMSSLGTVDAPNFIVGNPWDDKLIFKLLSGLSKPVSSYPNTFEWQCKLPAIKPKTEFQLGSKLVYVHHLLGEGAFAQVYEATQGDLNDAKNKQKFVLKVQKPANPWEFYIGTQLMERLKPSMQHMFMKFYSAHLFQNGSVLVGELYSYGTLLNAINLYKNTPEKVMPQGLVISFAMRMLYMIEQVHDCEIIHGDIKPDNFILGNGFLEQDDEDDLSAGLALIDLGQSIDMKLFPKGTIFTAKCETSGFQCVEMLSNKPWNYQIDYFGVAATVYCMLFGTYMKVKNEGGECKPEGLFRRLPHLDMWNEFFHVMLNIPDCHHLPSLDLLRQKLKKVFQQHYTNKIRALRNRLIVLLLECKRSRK

SMILES | IC50 [nM]
CC(C)(C)OC(=O)N1CC(=O)c2c([nH]c(-c3ccnc(NC(=O)[C@H]4C[C@H]4F)c3)c2Nc2ccccc2)C1 [Example 128, tert-Butyl 3-anilino-2-[2-({[(1R,2R)-2-fluorocyclopropyl]carbonyl}amino)pyridin-4-yl]-4-oxo-1,4,5,7-tetrahydro-6H-pyrrolo[2,3-c]pyridine-6-carboxylate] | 8
CS(=O)(=O)N1CC(=O)c2c([nH]c(-c3ccncc3)c2Nc2ccccc2)C1 [Example 19, 6-(Methylsulfonyl)-3-(phenylamino)-2-(pyridin-4-yl)-1,5,6,7-tetrahydro-4H-pyrrolo[2,3-c]pyridin-4-one] | 8
CC(=O)Nc1cc(-c2[nH]c3c(c2Nc2ccccc2)C(=O)CN(C(=O)N(C)C)C3)ccn1 [Example 124, 2-(2-Acetamidopyridin-4-yl)-3-anilino-N,N-dimethyl-4-oxo-1,4,5,7-tetrahydro-6H-pyrrolo[2,3-c]pyridine-6-carboxamide] | 4
COC(=O)N1CC(=O)c2c([nH]c(-c3ccnc(NC(=O)C(C)(C)F)c3)c2Nc2ccccc2)C1 [Example 144, Methyl 3-anilino-2-{2-[(2-fluoro-2-methylpropanoyl)amino]pyridin-4-yl}-4-oxo-1,4,5,7-tetrahydro-6H-pyrrolo[2,3-c]pyridine-6-carboxylate] | 20
CC(=O)Nc1cc(-c2[nH]c3c(c2Nc2ccccc2)C(=O)CN(C(=O)OC(C)(C)C)C3)ccn1 [Example 23, tert-Butyl 2-[2-(acetylamino)pyridin-4-yl]4-oxo-3-(phenylamino)-1,4,5,7-tetrahydro-6H-pyrrolo[2,3-c]pyridine-6-carboxylate] | 1660
CC(C)(C)SC(=O)N1CC(=O)c2c([nH]c(-c3ccnc(NC(=O)C4(F)CC4)c3)c2Nc2ccccc2)C1 [Example 307, S-tert-Butyl 3-anilino-2-{2-([(1-fluorocyclopropyl)carbonyl]amino}pyridin-4-yl)-4-oxo-1,4,5,7-tetrahydro-6H-pyrrolo[2,3-c]pyridine-6-carbothioate] | 182
CC(C)(C)OC(=O)N1CC(=O)c2c([nH]c(-c3ccnc(NC(=O)c4ccc(F)cc4)c3)c2Nc2ccccc2)C1 [Example 133, tert-Butyl 3-anilino-2-{2-[(4-fluorobenzoyl)amino]pyridin-4-yl}-4-oxo-1,4,5,7-tetrahydro-6H-pyrrolo[2,3-c]pyridine-6-carboxylate] | 28
CCCN(C)C(=O)N1CC(=O)c2c([nH]c(-c3ccnc(NC(C)=O)c3)c2Nc2ccccc2)C1 [Example 187, 2-(2-Acetamidopyridin-4-yl)-3-anilino-N-methyl-4-oxo-N-propyl-1,4,5,7-tetrahydro-6H-pyrrolo[2,3-c]pyridine-6-carboxamide] | 3
COCC(=O)Nc1cc(-c2[nH]c3c(c2Nc2ccccc2)C(=O)COC3)ccn1 [Example 45, 2-Methoxy-N-{4-[4-oxo-3-(phenylamino)-1,4,5,7-tetrahydropyrano[3,4-b]pyrrol-2-yl]pyridin-2-yl}acetamide] | 59
O=C1CN(S(=O)(=O)c2cnc[nH]2)Cc2[nH]c(-c3ccnc(NC(=O)[C@H]4C[C@H]4F)c3)c(Nc3ccccc3)c21 (relative stereo) [Example 163, rel-(1R,2R)—N-{4-[3-Anilino-6-(1H-imidazol-5-ylsulfonyl)-4-oxo-4,5,6,7-tetrahydro-1H-pyrrolo[2,3-c]pyridin-2-yl]pyridin-2-yl}-2-fluorocyclopropanecarboxamide] | 6
CC(C)(C)C(=O)N1CC(=O)c2c([nH]c(-c3ccncc3)c2Nc2ccccc2)C1 [Example 9, 6-(2,2-Dimethylpropanoyl)-3-(phenylamino)-2-(pyridin-4-yl)-1,5,6,7-tetrahydro-4H-pyrrolo[2,3-c]pyridin-4-one] | 4
CS(=O)(=O)N1CC(=O)c2c([nH]c(-c3ccncc3OCC3CC3)c2Nc2ccccc2)C1 [Example 235, 2-[3-(Cyclopropylmethoxy)pyridin-4-yl]-6-(methylsulfonyl)-3-(phenylamino)-1,5,6,7-tetrahydro-4H-pyrrolo[2,3-c]pyridin-4-one] | 6
CC(=O)Nc1cc(-c2[nH]c3c(c2Nc2ccccc2)C(=O)CN(C(=O)CC(C)(C)C(F)(F)F)C3)ccn1 [Example 219, N-{4-[3-Anilino-4-oxo-6-(4,4,4-trifluoro-3,3-dimethylbutanoyl)-4,5,6,7-tetrahydro-1H-pyrrolo[2,3-c]pyridin-2-yl]pyridin-2-yl}acetamide] | 22
CCOC(=O)N1CC(=O)c2c([nH]c(-c3ccncc3)c2Nc2ccccc2)C1 [Example 76, Ethyl 4-oxo-3-(phenylamino)-2-(pyridin-4-yl)-1,4,5,7-tetrahydro-6H-pyrrolo[2,3-c]pyridine-6-carboxylate] | 7
CC(=O)N1CC(=O)c2c([nH]c(-c3ccnc(NC(=O)c4ccc(F)cc4C)c3)c2Nc2ccccc2)C1 [Example 265, N-4-[6-Acetyl-4-oxo-3-(phenylamino)-4,5,6,7-tetrahydro-1H-pyrrolo[2,3-c]pyridin-2-yl]pyridin-2-yl-4-fluoro-2-methylbenzamide] | 6
O=C1CN(C(=O)N2CCOCC2)Cc2[nH]c(-c3ccncc3OCC(F)F)c(Nc3ccccc3)c21 [Example 239, 2-[3-(2,2-Difluoroethoxy)pyridin-4-yl]-6-(morpholin-4-ylcarbonyl)-3-(phenylamino)-1,5,6,7-tetrahydro-4H-pyrrolo[2,3-c]pyridin-4-one] | 20
O=C(Nc1cc(-c2[nH]c3c(c2Nc2ccccc2)C(=O)COC3)ccn1)c1ccn[nH]1 [Example 145, N-[4-(3-Anilino-4-oxo-1,4,5,7-tetrahydropyrano[3,4-b]pyrrol-2-yl)pyridin-2-yl]-1H-pyrazole-5-carboxamide] | 16
Cc1cnccc1-c1[nH]c2c(c1Nc1ccccc1)C(=O)CSC2 [Example 37, 2-(3-Methylpyridin-4-yl)-3-(phenylamino)-1,7-dihydrothiopyrano[3,4-b]pyrrol-4(5H)-one] | 482
Cc1nccc(-c2[nH]c3c(c2Nc2ccccc2)C(=O)CN(S(C)(=O)=O)C3)n1 [Example 29, 2-(2-Methylpyrimidin-4-yl)-6-(methylsulfonyl)-3-(phenylamino)-1,5,6,7-tetrahydro-4H-pyrrolo[2,3-c]pyridin-4-one] | 24
O=C1CN(S(=O)(=O)C(F)F)Cc2[nH]c(-c3ccncc3)c(Nc3ccccc3)c21 [Example 68, 6-[(Difluoromethyl)sulfonyl]-3-(phenylamino)-2-(pyridin-4-yl)-1,5,6,7-tetrahydro-4H-pyrrolo[2,3-c]pyridin-4-one] | 5
CC(C)(C)COC(=O)N1CC(=O)c2c([nH]c(-c3ccncc3)c2Nc2ccccc2)C1 [Example 78, 2,2-Dimethylpropyl 4-oxo-3-(phenylamino)-2-(pyridin-4-yl)-1,4,5,7-tetrahydro-6H-pyrrolo[2,3-c]pyridine-6-carboxylate] | 73
O=C1CN(Cc2ccccc2)Cc2[nH]c(-c3ccncc3)c(Nc3ccccc3)c21 [Example 1, 6-Benzyl-3-(phenylamino)-2-(pyridin-4-yl)-1,5,6,7-tetrahydro-4H-pyrrolo[2,3-c]pyridin-4-one] | 67
O=C(Nc1cc(-c2[nH]c3c(c2Nc2ccccc2)C(=O)CN(S(=O)(=O)c2cnc[nH]2)C3)ccn1)c1cncs1 [Example 161, N-{4-[3-Anilino-6-(1H-imidazol-5-ylsulfonyl)-4-oxo-4,5,6,7-tetrahydro-1H-pyrrolo[2,3-c]pyridin-2-yl]pyridin-2-yl}-1,3-thiazole-5-carboxamide] | 5
O=C1CNCc2[nH]c(-c3ccncc3F)c(Nc3ccccc3)c21 [Example 101, 2-(3-Fluoropyridin-4-yl)-3-(phenylamino)-1,5,6,7-tetrahydro-4H-pyrrolo[2,3-c]pyridin-4-one] | 43
COC(=O)N1CC(=O)c2c([nH]c(-c3ccnc(NC(C)=O)c3)c2Nc2ccccc2)C1 [Example 31, Methyl 2-[2-(acetylamino)pyridin-4-yl]-4-oxo-3-(phenylamino)-1,4,5,7-tetrahydro-6H-pyrrolo[2,3-c]pyridine-6-carboxylate] | 7
O=C1CN(S(=O)(=O)CC2CCOCC2)Cc2[nH]c(-c3ccncc3)c(Nc3ccccc3)c21 [Example 71, 3-(phenylamino)-2-(pyridin-4-yl)-6-[(tetrahydro-2H-pyran-4-ylmethyl)sulfonyl]-1,5,6,7-tetrahydro-4H-pyrrolo[2,3-c]pyridin-4-one] | 8
O=C(Nc1cc(-c2[nH]c3c(c2Nc2ccccc2)C(=O)CNC3)ccn1)c1cnn[nH]1 [Example 275, N-4-[4-Oxo-3-(phenylamino)-4,5,6,7-tetrahydro-1H-pyrrolo[2,3-c]pyridin-2-yl]pyridin-2-yl-1H-1,2,3-triazole-5-carboxamide] | 113
CC(C)S(=O)(=O)N1CC(=O)c2c([nH]c(-c3ccnc(NC(=O)[C@@H]4C[C@@H]4F)c3)c2Nc2ccccc2)C1 [Example 214, (1S,2S)-2-Fluoro-N-4-[4-oxo-3-(phenylamino)-6-(propan-2-ylsulfonyl)-4,5,6,7-tetrahydro-1H-pyrrolo[2,3-c]pyridin-2-yl]pyridin-2-ylcyclopropanecarboxamide] | 3
CC(C)(C)OC(=O)N1CC(=O)c2c([nH]c(-c3ccncc3OCC(F)F)c2Nc2ccccc2)C1 [Example 220, tert-Butyl 3-anilino-2-[3-(2,2-difluoroethoxy)pyridin-4-yl]-4-oxo-1,4,5,7-tetrahydro-6H-pyrrolo[2,3-c]pyridine-6-carboxylate] | 18
CC(C)(C)CC(=O)N1CC(=O)c2c([nH]c(-c3ccncc3)c2Nc2ccccc2)C1 [Example 58, 6-(3,3-Dimethylbutanoyl)-3-(phenylamino)-2-(pyridin-4-yl)-1,5,6,7-tetrahydro-4H-pyrrolo[2,3-c]pyridin-4-one] | 8

From US20200216439A1, “HETERO-1,5,6,7-TETRAHYDRO-4H-INDOL-4-ONES” (BAYER PHARMA AKTIENGESELLSCHAFT, priority 2015, published 2020)
